# Entries after “also recorded” stand apart in the source; their conditions may differ.
# Legend:
# Format in all cases: in vivo, dogs
# [1] = tested on: cutaneous Mast Cell Tumor (MCT); assay: Example 2: dose de-escalation study (1.0, 0.5, 0.2 mg/mL; 0.5 mL per cm^3 tumor), RECIST v.1.1 tumor response; details: for RECIST classification: Day 21, one value per dog
# Description: A multi-site, unmasked, uncontrolled, non-randomized dosage characterization study in dogs was performed under field conditions using dose de-escalation.
# Dogs were enrolled in the study as they presented to participating veterinary practices meeting the necessary eligibility criteria. As the study design was a dose de-escalation study, dogs were allocated to the highest dose initially (1.0 mg Compound 1 per mL). Each dose comprised a total cohort of 10 dogs participating across all clinics. Once the cohort of 10 dogs was treated at the highest dose, subsequent dogs were assigned to the 2nd cohort (0.5 mg Compound 1 per mL) and dosing continued through de-escalation until completion of 7 evaluable enrolments in the 3rd cohort (0.2 mg Compound 1 per mL).
# Each Compound 1 preparation (1.0, 0.5, and 0.2 mg/mL) was pre-prepared in a 30% propylene glycol, 30 mM Acetate buffer pH 4.0 solution.
# Compound 1 was administered to each dog at 0.5 mL per cm^3 of tumor volume as determined on the day of dosing. Digital calipers were used to measure tumor axes.
# Wherever possible, the tumor and a 2 cm border surrounding the tumor was shaved prior to treatment. To deliver the drug formulation, the needle of the dosing syringe was inserted into the tumor at the injection point and moved in a radial manner in 2- and 3-dimensions with approximately 0.1 mL of formulation delivered to each 0.2 cm^3 of tumor mass. Study dogs were clinically examined at approximately 24 and 48 hours, 7, 14 and 21 days post-treatment.
# Prophylactic and supportive medications considered for use in this study to prevent paraneoplastic MCT-induced adverse events such as Darier's sign and gastric upset included cetrizine, chlorpheniramine, omeprazole, acetylpromazine, methadone and meloxicam. Some supportive therapies were given up to 5 days post treatment (see Table 14). Additional approved supportive therapies (if required) included fentanyl (patch) or tramadol analgesia, or antibiotic (amoxicillin/clavulanic acid).
# Determination of efficacy was based on objective tumor measurements made according to the RECIST v.1.1 guidelines (Eisenhauer et al., 2009) using unidirectional tumor measurements.
# Pairwise comparison of categorical responses to treatment between treatment groups at each time point post-treatment were compared using Fisher's Exact Test. Using the RECIST classification (Eisenhauer et al., 2009), tumor data was analysed to determine the effectiveness of, and differences between, treatments. Generalised linear modeling was used to examine the combined effects of treatment dose, time post-treatment and other potentially explanatory variables. Generalised estimating equations with appropriate error structure (and controlled for repeated measurements of individuals) were used to examine categorical response to treatment and changes in tumor volume measurement. Tumor volume analysis was also controlled for pre-treatment tumor volume.
# MCT measurements were recorded using digital calipers. Measurements were taken pre-treatment and at 7(±1), 14(±1) and 21(±2) days post treatment. The length (cm) was designated the longest measurable axis; the width (cm) was the tumor at the widest point perpendicular to the length; gentle manipulation of the MCT to measure the depth (cm) using the calipers was considered acceptable. Determination of efficacy was based on objective tumor measurements made according to the RECIST v.1.1 guideline using the longest unidirectional measurement (Eisenhauer et al. 2009) recorded at each timepoint. RECIST criteria were only applied to target lesions as Compound 1 is not intended as a systemic therapy. […] RECIST v.1.1 results are summarized below in Table 18.
# [2] = Example 2: serum biochemistry and haematology
# Excerpt: Individual blood samples were collected from the dogs into gel separated plain vacuettes at intervals outlined in Table 12. Plain blood samples were submitted on ice bricks by express courier to the local IDEXX laboratory which performed detailed biochemical analysis. Analysis included creatinine, protein, albumin, globulin, alkaline phosphatase, AST, gamma GT, creatine kinase, cholesterol, magnesium, calcium, phosphate, sodium, potassium, chloride, ALT, glucose, urea, amylase, bilirubin and triglycerides.
# Individual blood samples were collected from the dogs into anti-coagulated (EDTA and sodium citrate) vacutainers at intervals outlined in Table 12. Blood samples were then be submitted on ice bricks by express courier to the local IDEXX laboratory, which performed detailed haematological analysis. Analysis included red blood cell count, white cell count, packed cell volume, mean corpuscular volume, mean corpuscular haemoglobin, mean corpuscular haemoglobin concentration, white cell differential count, platelets, haemoglobin, reticulocytes, PT and APTT.
# [3] = Example 7: injection site abnormalities after IVP dosing (VCOG CTCAE); set-up: key to VCOG CTCAE Magnitude of injection site abnormality: Grade 1: Mild; asymptomatic or mild symptoms; clinical signs or diagnostic observations only; intervention not indicated; key to VCOG CTCAE Relationship to IVP of injection site abnormality: Unrelated: Clearly not related to IVP; Unlikely: Doubtfully related to IVP; Possible: May be related to IVP; Probably: Likely related to IVP; Definite: Clearly related to IVP
# Excerpt: Injection site abnormalities were reported within the immediate post-injection period for six cases. […] An analgesic was prescribed to start on day 0 for one of the six cases (SI-11). […] The VCOG CTCAE classifications of these injection site abnormalities for magnitude and relationship to IVP as determined by the investigator are listed in Table 35.
# [4] = immediate post-injection period
smiles,measurement,setting,value
"C/C=C(\C)C(=O)O[C@@H]1[C@@H](C)[C@@]2(O)[C@H]([C@@H]3C(C)(C)[C@]13OC(=O)[C@@H](C)CC)[C@@H]1O[C@]1(CO)[C@@H](O)[C@]1(O)C(=O)C(C)=C[C@H]12 [Compound 1, 12-tigloyl-13-(2-methylbutanoyl)-6,7-epoxy-4,5,9,12,13,20-hexahydroxy-1-tigliaen-3-one]",Number of dogs with complete response (CR),"[1]; cohort 1, 1.0 mg/mL, 10 dogs",9
same,RECIST classification,"[1]; cohort 2, 0.5 mg Compound 1/mL","PR (partial response (PR, at least 30% decrease in the longest diameter of target lesion)); also recorded: PD (progressive disease (PD, greater than 20% increase in the target lesion))"
same,Number of dogs with complete response (CR),"[1]; cohort 2, 0.5 mg/mL, 10 dogs",5
same,Number of dogs with partial response (PR),"[1]; cohort 2, 0.5 mg/mL, 10 dogs",1
same,Number of dogs with progressive disease (PD),"[1]; cohort 2, 0.5 mg/mL, 10 dogs",1
same,RECIST classification,"[1]; cohort 3, 0.2 mg Compound 1/mL","PR (partial response (PR, at least 30% decrease in the longest diameter of target lesion))"
same,Number of dogs showing efficacy (greater than a 70% reduction in tumor volume at 21 days),"[1]; cohort 3, 0.2 mg/mL",< 3
same,Number of dogs with complete response (CR),"[1]; cohort 3, 0.2 mg/mL, 7 dogs",2
same,Number of dogs with partial response (PR),"[1]; cohort 3, 0.2 mg/mL, 7 dogs",1
same,Mitotic nuclei in post-surgical biopsy material of residual tumor,"[1]; dog GCV-107, cohort 1",no mitotic nuclei identified
same,Total tumor volume reduction (modified ellipsoidal calculation),"[1]; dog GCV-107, cohort 1, Day 21",36%
same,Unidirectional tumor measurement (length) decrease,"[1]; dog GCV-107, cohort 1, by Day 21",23%
same,Anaemia during the course of the study,[2]; all cohorts,No dog exhibited anaemia
same,Bleeding disorder during the course of the study,[2]; all cohorts,No dog exhibited a bleeding disorder
same,Haematology observations,[2]; all cohorts,fairly unremarkable
same,Number of dogs with slightly elevated reticulocyte counts post treatment,[2]; all cohorts (27 dogs),7
same,Serum biochemistry observations,"[2]; all cohorts, exceptions dogs GCV-204 (AST, CK) and NVC-307 (transient AST, ALT)",fairly unremarkable
same,Number of dogs with slightly lower platelet counts post treatment,[2]; platelets described as ‘clumping’,5
same,Number of cases with injection site abnormalities in the immediate post-injection period,[3]; 11 cases,six
same,Number of cases that exhibited restlessness,[3]; [4],three
same,Number of cases that experienced pain,[3]; [4],Three
same,Day by which injection site abnormalities resolved,[3]; pain and restlessness,≤ 1 days
same,VCOG CTCAE Relationship to IVP of injection site abnormality,"[3]; per case, as determined by the investigator",Definite; also recorded: Possible; also recorded: Probable
same,VCOG CTCAE Magnitude of injection site abnormality,"[3]; per case, immediate post-injection period",Grade 1^f

# — patent US20190160035A1, “METHOD OF TREATMENT” (QBIOTICS LIMITED, priority 2016, published 2019)
